Source: US20240000786A1, “COMPOSITION FOR ENHANCING INTRA-CELLULAR NITRIC OXIDE GENERATION” (INSTITUTE OF LIFE SCIENCES, priority 2020, published 2024)

Tests used:
human PBMCs = experiment: NO levels (Griess) in human PBMCs, small molecules alone or in combination; format: cell-based; details: 0.1 and 0.01 μM, 24 h
Method: PBMCs (1 million cells/ml) from healthy individuals' blood was isolated and were treated with or without NOSIP antagonists (either alone or mixture of equimolar concentration of all 5 small molecule antagonists at 0.1 and 0.01 μM) for 30 min in triplicate wells and incubated for 24 h at 37° C. The culture supernatants were analysed by […] for nitrite concentration using Griess reagent, and the NO levels are shown as mean percent increase over untreated control. The panel on the right top of FIG. 10 depict nitrite levels by individual small molecules in human PBMCs. […] Thus a combined mixture of 5 small molecules will be desirable for use in mouse as well as humans.

[1] = target: T1, iNOS-NOSIP protein interaction (Homo sapiens, UniProt Q9Y314); experiment: SPR: inhibition of rNOSIP association with immobilized recombinant iNOS by iNOS peptides / small molecules; format: binding; details: for inhibition hierarchy of iNOS-NOSIP protein interaction: SPR, rank order; for Kd: Kd/Ka; for inhibition of binding of NOSIP with iNOS ligand by small molecules: rNOSIP 250 nM, small molecules 1 uM, SPR (FIG. 4)
T1 construct: made in house; host or cells: E. coli BL21 (DE3)
T1 sequence (Q9Y314 with tags, fused parts or gaps): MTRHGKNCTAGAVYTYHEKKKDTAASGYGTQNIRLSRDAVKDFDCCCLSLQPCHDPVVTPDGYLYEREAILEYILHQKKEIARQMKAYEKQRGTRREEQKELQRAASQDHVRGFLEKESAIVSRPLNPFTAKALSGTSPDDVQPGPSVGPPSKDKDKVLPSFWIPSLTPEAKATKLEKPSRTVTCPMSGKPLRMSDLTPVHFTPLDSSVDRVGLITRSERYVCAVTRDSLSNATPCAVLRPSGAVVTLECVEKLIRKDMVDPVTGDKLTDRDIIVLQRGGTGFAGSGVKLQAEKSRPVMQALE
Method: Four different iNOS peptides were synthesized commercially by China peptides and iNOS peptides were used for molecular interaction studies with immobilized recombinant iNOS purified protein. The iNOS peptides mediated inhibition of rNOSIP and riNOS protein association in Bio-Rad XPR 36 surface plasmon resonance biosensor instrument. […] 250 nM of iNOS peptides was used for inhibition assay with immobilized ligand(recombinant iNOS) in SPR analysis. Similar condition and concentration of small molecules were used for inhibition of recombinant protein association with immobilized ligand. […] The rNOSIP protein was incubated with iNOS derived peptide/small molecules for 30 minutes in ice for inhibition assay before the SPR application in our study. The molecular interaction was carried out at 20° C. and kinetic parameters were determined, after fitting the association and dissociation curves to a 1:1 (Langmuir)-binding model. An activated channel without immobilized ligand was used to evaluate nonspecific binding. The response curves were also recorded on control surfaces. Results were calculated after subtraction of the control values using the ProteOn Manager software.
The collected sensorgram data were processed by reference subtraction using double-referencing with the in-line blank buffer. The integrated ProteOn Manager software was used to fit the data with the Langmuir model describing a 1:1 binding stoichiometry. Ka is the association rate constant, Kd is the dissociation rate constant, and KD is the equilibrium dissociation constant, defined by the Kd/Ka ratio for the analytes-ligand binding.
The five small molecules bind with NOSIP and inhibit the association of recombinant NOSIP and recombinant iNOS. The rNOSIP protein was incubated with iNOS derived peptide or small molecules for 30 minutes in ice prior to SPR application. The molecular interaction was carried out at 20° C. and kinetic parameters were determined, after fitting the association and dissociation curves to a 1:1 (Langmuir)-binding model. An activated channel without immobilized ligand (recombinant iNOS) was used to evaluate nonspecific binding. The response curves were also recorded on control surfaces. Results were calculated after subtraction of the control values using the ProteOn Manager software.
The collected sensorgram data were processed by reference subtraction using double-referencing with the in-line blank buffer. The integrated ProteOn
Manager software was used to fit the data with the Langmuir model describing a 1:1 binding stoichiometry. Ka is the association rate constant, Kd is the dissociation rate constant, and KD is the equilibrium dissociation constant, defined by the Kd/Ka ratio for the analytes—ligand binding.

rNOSIP = target: T2, rNOSIP (Homo sapiens, UniProt Q9Y314); experiment: Isothermal titration calorimetry (ITC) of rNOSIP with small molecules / 18 mer iNOS peptide (PP2); format: binding; details: for ΔG / ΔH / −TΔS / Kd / N (Sites): ITC 25° C.; for Kd / N (Sites): small molecule/peptide in cell, NOSIP in syringe; for Fold Change (KD): ITC KD relative to iNOS-Peptide2 = 1; for SM binding affinity with NOSIP, hierarchy: ITC, rank order
T2 construct: made in house; host or cells: E. coli BL21 (DE3)
T2 sequence (Q9Y314 with tags, fused parts or gaps): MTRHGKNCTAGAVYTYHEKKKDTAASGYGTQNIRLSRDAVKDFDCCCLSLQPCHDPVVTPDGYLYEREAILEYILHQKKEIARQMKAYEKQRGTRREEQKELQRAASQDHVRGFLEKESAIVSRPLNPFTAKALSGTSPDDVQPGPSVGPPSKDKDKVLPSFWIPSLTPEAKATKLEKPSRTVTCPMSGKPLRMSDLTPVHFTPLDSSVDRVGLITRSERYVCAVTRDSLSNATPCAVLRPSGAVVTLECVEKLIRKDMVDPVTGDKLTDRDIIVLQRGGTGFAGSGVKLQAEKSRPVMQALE
Method: The 18 mer iNOS peptide (PP2) and small molecules were used for physical association of molecules in calorimetric analysis. The molecular association leads to thermodynamics changes such as Gibb's free energy change (ΔG), entropy change (ΔS), enthalpy change (ΔH) and number of binding sites (N) in interacting solution were investigated by isothermal calorimetry MICROCAL PEQ (Malvern) at 25° C. […] The experiment consisted of multiple injections and each injection contained 1.5 μl of binding solution (recombinant NOSIP solution) with 120 second spacing time between subsequent injections. Sequential titrations were carried out and the sample solution was continuously stirred at 270 rpm by the rotating paddle attached to the syringe needle. Multiple injections of NOSIP made into the sample cell containing interacting solution of peptide and small molecules. The titration curves were analyzed using the analysis software provided with the calorimeter.
The 18 mer iNOS peptide (PP2) and five small molecules were used to analyze physical association in calorimetric analysis. The molecular association leads to thermodynamics changes such as Gibb's free energy change (ΔG), entropy change (ΔS), enthalpy change (ΔH) and number of binding sites (N) in interacting solution were investigated by isothermal calorimetry MICROCAL PEQ (Malvern) at 25° C. […] The experiment consisted of multiple injections and each injection contained 1.5 μl of binding solution with 120 second spacing time between subsequent injections. Sequential titrations were carried out and the sample solution was continuously stirred at 270 rpm by the rotating paddle attached to the syringe needle. Multiple injections of NOSIP made into the sample cell containing interacting solution of peptide and small molecules. The titration curves were analyzed using the analysis software provided with the calorimeter.

Mouse BMDMs = experiment: Nitric oxide production by individual small molecules in mouse BMDM; format: cell-based
recombinant iNOS = target: T3, recombinant iNOS (Homo sapiens, UniProt P35228); experiment: iNOS enzyme activity in presence of recombinant NOSIP, Griess reaction; format: biochemical; details: iNOS 0.5 μM, NOSIP 0.5 to 5 μM, substrate L-Arginine
T3 construct: made in house; host or cells: E. coli BL21 (DE3)
Method: The human iNOS oxygenase domain (SEQ ID No.: 24) containing 424 nucleotide sequence and NOSIP gene (SEQ ID No.: 23) containing 301 nucleotide sequences were synthesized by GenScript and cloned in pET22b expression vector. The recombinant pET22b: iNOS and pET22b: NOSIP plasmid was used to transform competent E. coli BL21 (DE3) cells. The proteins were over expressed using 0.2 mM IPTG at 25° C. The harvested cells were resuspended and sonicated in 20 mM Tris-HCl, pH 7.5, 200 mM NaCl, 0.05% Triton X-100 and protease inhibitor (Sigma). The expressed proteins were purified by nickel nitrilotriacetic acid column using 250 mM imidazole and gel filtration chromatography. The protein was quantified by Bradford assay (Sigma) and integrity of purified protein was checked on 12% SDS-PAGE.
In a […] assay increasing concentrations of recombinant NOSIP were mixed with recombinant iNOS along with substrate L-Arginine and the resultant product, […] was quantified by using Griess reaction kit. […] Statistical significance was assessed by one way ANOVA, Tukey& #39;s Multiple Comparison Test.

[2] = analyte rNOSIP alone or + peptide/small molecule, ligand r iNOS, 20° C.
[3] = analyte rNOSIP alone or + peptide/small molecule, ligand r iNOS, 20° C., 1:1 Langmuir

T3 sequence (P35228 with tags, fused parts or gaps limits assumed): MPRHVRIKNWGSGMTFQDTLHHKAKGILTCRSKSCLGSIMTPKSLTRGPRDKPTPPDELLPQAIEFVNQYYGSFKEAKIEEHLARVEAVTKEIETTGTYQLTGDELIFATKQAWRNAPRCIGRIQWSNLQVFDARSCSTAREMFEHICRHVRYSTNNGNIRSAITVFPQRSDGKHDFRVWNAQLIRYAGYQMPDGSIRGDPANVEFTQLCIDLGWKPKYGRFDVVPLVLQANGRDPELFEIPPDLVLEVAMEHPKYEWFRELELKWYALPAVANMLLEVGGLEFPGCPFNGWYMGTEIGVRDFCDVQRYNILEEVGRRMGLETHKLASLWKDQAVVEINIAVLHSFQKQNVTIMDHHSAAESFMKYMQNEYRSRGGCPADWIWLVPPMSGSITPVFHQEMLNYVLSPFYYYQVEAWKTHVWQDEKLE

## COc1cc(C)ccc1OCc1nc(C(=O)NCc2n[nH]c3c2CCC3)co1 [MCULE-4640800528, N-({1H,4H,5H,6H-cyclopenta[c]pyrazol-3-yl}methyl)-2[(2-methoxy-4-methylphenoxy)methyl]-1,3-oxazole-4-carboxamide]
Human PBMCs
  nitric oxide produced, individual small molecules compared: more effective than molecules in human cells
[1]
  inhibition hierarchy of iNOS-NOSIP protein interaction: CC4>CC11>CC6>CC5>CC13>iNOS Peptide 2
  inhibition of binding of NOSIP with iNOS ligand by small molecules: inhibit the binding of NOSIP with iNOS ligand
[1]; analyte rNOSIP alone or + peptide/small molecule, ligand r iNOS, 20° C., 1:1 Langmuir, read-out: Ka
  kon: 0.563 M⁻¹ s⁻¹
[1]; [2]
  Kd: 870 µM
rNOSIP
  ΔG: -36.4 kJ/mol
  ΔH: -35.7 ± 1.07 kJ/mol
  −TΔS: -0.665 kJ/mol
  Kd: 0.42 ± 0.0575 µM
  N (Sites): 1.04
  Fold Change (KD): 0.766
  SM binding affinity with NOSIP, hierarchy: CC4>CC11>CC6>CC5>CC13>Peptide 2 (iNOS)

## CCN(c1ccccc1)S(=O)(=O)c1ccc(Cl)c(NC(=O)COC(=O)c2ccccc2SCC(=O)Nc2ccc3c(c2)OCO3)c1 [MCULE-8094061955, ({2-chloro-5-[ethyl(phenyl)sulfamoyl]phenyl}carbamoyl)methyl 2-({[(2H-1,3-benzodioxol-5-yl)carbamoyl]methyl}sulfanyl) benzoate]
Mouse BMDMs
  nitric oxide produced, individual small molecules compared: more effective with mouse cells
[1]
  inhibition hierarchy of iNOS-NOSIP protein interaction: CC4>CC11>CC6>CC5>CC13>iNOS Peptide 2
  inhibition of binding of NOSIP with iNOS ligand by small molecules: inhibit the binding of NOSIP with iNOS ligand
[1]; [3]
  Ka(1/Ms): 6.7e^−01 1/Ms
[1]; [2]
  Kd: 809 µM
rNOSIP
  ΔG: -36 kJ/mol
  ΔH: -37.9 ± 1.05 kJ/mol
  −TΔS: 1.92 kJ/mol
  Kd: 0.493 ± 0.0632 µM
  N (Sites): 0.993
  Fold Change (KD): 0.899
  SM binding affinity with NOSIP, hierarchy: CC4>CC11>CC6>CC5>CC13>Peptide 2 (iNOS)

B1: NOSIP: recombinant Nitric oxide synthase interacting protein expressed in E. coli BL21 (DE3) (protein, UniProt Q9Y314 1-301, looked up)
Nitric oxide …: MTRHGKNCTAGAVYTYHEKKKDTAASGYGTQNIRLSRDAVKDFDCCCLSLQPCHDPVVTPDGYLYEREAILEYILHQKKEIARQMKAYEKQRGTRREEQKELQRAASQDHVRGFLEKESAIVSRPLNPFTAKALSGTSPDDVQPGPSVGPPSKDKDKVLPSFWIPSLTPEAKATKLEKPSRTVTCPMSGKPLRMSDLTPVHFTPLDSSVDRVGLITRSERYVCAVTRDSLSNATPCAVLRPSGAVVTLECVEKLIRKDMVDPVTGDKLTDRDIIVLQRGGTGFAGSGVKLQAEKSRPVMQA
[1]; [3]
  Ka(1/Ms): 9.57e^+04 1/Ms
[1]; [2]
  Kd: 0.00711 µM
Recombinant iNOS
  inhibition of iNOS enzyme activity (Griess): inhibits enzyme activity of iNOS
